The results in this text go back to ChEMBL document CHEMBL1201862, “PubChem BioAssay data set” (2004).

Some test systems named below: SNB-19; HOP-92; HCC 2998; CCRF-CEM; UACC-62; HT-29; UACC-257; HL-60; CAKI-1; HCT-116; OVCAR-8; K562; SNB-75; T47D; NCI-H522; Hs-578T; LOX IMVI; MDA-N; BT-549; A498.
What all share (experiment): growth of human tumour cells (NCI), 48 h

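Values below derive from 48-hour exposures of cells grown in 96-well plates, with endpoints linearly interpolated between the two concentrations bracketing the appropriate inhibition level. At the GI50, growth is halved.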 Activity calls are given as the source filed them. Cut-off read from the data, not from the text of the source: active = GI50 up to about 1.1 µM and inactive = higher. Bounds are passed on as bounds.

Regarding `COc1ccccc1C#C/C=C\C#Cc1ccccc1C#N`, the GI50 was 37.8 µM (inactive) in the assay with SNB-19; 31.7 µM (inactive) with HOP-92; 6.19 µM (inactive) in the assay with HCC 2998; 5.26 µM (inactive) in the assay with CCRF-CEM; 23.7 µM (inactive) in the assay on UACC-62; 6.28 µM (inactive) in the assay on HT-29. For the same molecule, the GI50 is 5.2 µM (inactive) in the assay with UACC-257; 4.55 µM (inactive) in the assay with HL-60; 3.72 µM (inactive) in the assay with CAKI-1; 7.35 µM (inactive) with HCT-116; 5.35 µM (inactive) with OVCAR-8; 3.68 µM (inactive) with K562. The GI50 is 28.7 µM (inactive) in the assay on SNB-75, 5.86 µM (inactive) in the assay with T47D, 5.14 µM (inactive) with NCI-H522 and 25.9 µM (inactive) in the assay on Hs-578T.

As for `O=C1Nc2ccccc2/C1=N/Nc1nc(-c2ccc(Cl)c(Cl)c2)cs1`, the GI50 with SNB-19 is > 100 µM (inactive); with HOP-92 it was > 100 µM (inactive); with HCC 2998, > 100 µM (inactive); in the assay with LOX IMVI, > 100 µM (inactive); in the assay on MDA-N it was 47 µM (inactive); in the assay on HT-29 it was 56 µM (inactive). Further, the GI50 was > 100 µM (inactive) in the assay with UACC-257; 0.232 µM (active) with HL-60; 5.69 µM (inactive) in the assay with CAKI-1; 90.6 µM (inactive) in the assay on HCT-116; 47.4 µM (inactive) in the assay on OVCAR-8; 49.3 µM (inactive) in the assay with SNB-75. For the same molecule, in the assay on T47D, the GI50 was 26 µM (inactive).

Consider `Cc1c(C)c2ccc(O)cc2[nH]c1=O`, for which the GI50 in the assay on SNB-19, in the assay on HOP-92, in the assay on HCC 2998, with BT-549, in the assay with A498 and with CCRF-CEM was > 100 µM (inactive) in each case. The GI50 in the assay with LOX IMVI, with MDA-N, in the assay on UACC-62, in the assay with HT-29, with UACC-257 and in the assay on CAKI-1 was > 100 µM (inactive) throughout. Further, the GI50 in the assay on HCT-116 is > 100 µM (inactive); in the assay with OVCAR-8 it was > 100 µM (inactive); with K562 it was > 100 µM (inactive); with SNB-75, 98.9 µM (inactive); in the assay on T47D, > 100 µM (inactive).

Take `CC(=O)C1C(=O)C(=O)N(c2ccc([N+](=O)[O-])cc2Cl)C1=O` (stereo unspecified): the GI50 in the assay on SNB-19 was > 100 µM (inactive); in the assay with HOP-92, 56.6 µM (inactive); in the assay with HCC 2998, > 100 µM (inactive); in the assay with BT-549, > 100 µM (inactive); with CCRF-CEM, > 100 µM (inactive); in the assay on LOX IMVI, > 100 µM (inactive). In addition, the GI50 in the assay on MDA-N was > 100 µM (inactive); in the assay on UACC-62, > 100 µM (inactive); in the assay with HT-29, > 100 µM (inactive); in the assay with UACC-257, > 100 µM (inactive); in the assay with HL-60, 93.1 µM (inactive); in the assay with CAKI-1, > 100 µM (inactive). The GI50 in the assay with HCT-116, in the assay on OVCAR-8, with SNB-75, with NCI-H522 and in the assay on Hs-578T was > 100 µM (inactive) each time.

Consider `CCOC(=O)c1c(-c2ccc(OC)c(O)c2)c(C#N)c(=S)n(C2OC(CO)C(O)C(O)C2O)c1-c1ccccc1` (stereo unspecified), for which the GI50 in the assay on SNB-19, in the assay with HCC 2998, in the assay on A498, in the assay on CCRF-CEM, with LOX IMVI and in the assay on MDA-N was > 100 µM (inactive) throughout. Also, the GI50 in the assay with UACC-62, with HT-29, in the assay with UACC-257, with CAKI-1, with HCT-116 and with K562 was > 100 µM (inactive) each time. In addition, the GI50 with Hs-578T was > 100 µM (inactive).

As for `COc1cccc(C(C#N)NNC(=O)c2c(Cl)c(Cl)c(Cl)c(Cl)c2-c2nc3cc(C(=O)c4ccccc4)ccc3[nH]2)c1O` (stereo unspecified), the GI50 in the assay with SNB-19 is 4.63 µM (inactive); with HOP-92, 9.2 µM (inactive); with BT-549, 6.37 µM (inactive); in the assay with A498, 2.05 µM (inactive); with CCRF-CEM, 3.2 µM (inactive); in the assay with LOX IMVI, 5.19 µM (inactive). For the same molecule, the GI50 is 1.68 µM (inactive) with MDA-N; 4.91 µM (inactive) in the assay with HT-29; 9.02 µM (inactive) in the assay on UACC-257; 3.59 µM (inactive) in the assay with HL-60; 6.25 µM (inactive) in the assay with CAKI-1; 4 µM (inactive) in the assay on HCT-116. Further, the GI50 with OVCAR-8 is 11.3 µM (inactive); in the assay with K562, 3.27 µM (inactive); in the assay on SNB-75, 2 µM (inactive); in the assay on T47D it was 2.79 µM (inactive).

Take `COc1cccc(NC(=O)CC(=O)Nc2cccc(OC)c2)c1`: the GI50 in the assay with SNB-19, with HOP-92, in the assay on HCC 2998, with BT-549, in the assay on A498 and in the assay with CCRF-CEM was > 100 µM (inactive) in each case. Further, the GI50 in the assay with LOX IMVI, in the assay with MDA-N, with UACC-62, in the assay with HT-29, with UACC-257 and in the assay on HL-60 was > 100 µM (inactive) throughout. The GI50 in the assay on CAKI-1, in the assay on HCT-116, with OVCAR-8, in the assay with K562, in the assay with NCI-H522 and in the assay on Hs-578T was > 100 µM (inactive) each time.

With `Cc1coc2c1[C@@H](O)[C@@]1(C)[C@H](CCC[C@@H]1C)C2`, the GI50 in the assay on SNB-19 was 72.9 µM (inactive); in the assay with HOP-92 it was 51.2 µM (inactive); in the assay on HCC 2998, 42.4 µM (inactive); in the assay on CCRF-CEM, 37.6 µM (inactive); in the assay with LOX IMVI it was 43.4 µM (inactive); in the assay on MDA-N it was 20.7 µM (inactive). In addition, the GI50 in the assay with UACC-62 was 56.2 µM (inactive); with HT-29, 42.8 µM (inactive); in the assay on UACC-257, 33 µM (inactive); with HL-60, 23.7 µM (inactive); in the assay with CAKI-1, 72.6 µM (inactive); in the assay with HCT-116, 33.5 µM (inactive). For the same molecule, the GI50 in the assay with OVCAR-8 was 22.4 µM (inactive); in the assay on K562 it was 26.9 µM (inactive); with T47D it was 31.4 µM (inactive); in the assay on NCI-H522, 25.3 µM (inactive); in the assay on Hs-578T it was 61.7 µM (inactive).

Consider `CC1NOC(NS(=O)(=O)c2ccc(/N=N/c3c(O)c(C(=O)O)cc4ccccc34)cc2)C1C` (stereo unspecified), for which the GI50 with SNB-19 was 59.2 µM (inactive); in the assay with HOP-92, > 100 µM (inactive); with HCC 2998, > 100 µM (inactive); in the assay with BT-549 it was > 100 µM (inactive); in the assay on CCRF-CEM, > 100 µM (inactive); in the assay on UACC-62 it was > 100 µM (inactive). Besides, the GI50 in the assay with HT-29, in the assay on UACC-257, with HL-60, in the assay on CAKI-1, in the assay on HCT-116 and in the assay on OVCAR-8 was > 100 µM (inactive) each time. Also, the GI50 was > 100 µM (inactive) with K562, > 100 µM (inactive) in the assay on SNB-75, 72.4 µM (inactive) with NCI-H522 and > 100 µM (inactive) in the assay with Hs-578T.

For the molecule `CCCCN(CCCC)C(=C(C(Cl)=C(Cl)Cl)[N+](=O)[O-])N(CCCC)CCCC`, the GI50 is > 100 µM (inactive) with SNB-19; 90.8 µM (inactive) in the assay on HOP-92; > 100 µM (inactive) in the assay with BT-549; > 100 µM (inactive) in the assay on A498; > 100 µM (inactive) in the assay with MDA-N; 87.3 µM (inactive) with UACC-62. Moreover, the GI50 was 32.1 µM (inactive) in the assay on UACC-257; > 100 µM (inactive) in the assay on CAKI-1; 67.9 µM (inactive) in the assay with HCT-116; 0.0119 µM (active) in the assay with K562; > 100 µM (inactive) in the assay with SNB-75; 73.8 µM (inactive) in the assay on T47D. Moreover, the GI50 in the assay with NCI-H522 is 48.3 µM (inactive).

Take `CCOC(CN=C=S)OCC`: the GI50 in the assay with SNB-19 was > 10 µM (inactive); with HOP-92 it was 7.67 µM (inactive); in the assay on HCC 2998, > 10 µM (inactive); with A498, > 10 µM (inactive); in the assay with CCRF-CEM it was 4.45 µM (inactive); with LOX IMVI, > 10 µM (inactive). The GI50 was > 10 µM (inactive) in the assay on MDA-N; > 10 µM (inactive) in the assay with UACC-62; > 10 µM (inactive) in the assay with HT-29; > 10 µM (inactive) in the assay on UACC-257; 3.83 µM (inactive) with HL-60; > 10 µM (inactive) with CAKI-1. The GI50 with HCT-116 is 7.4 µM (inactive); in the assay with OVCAR-8, > 10 µM (inactive); with K562, 7.01 µM (inactive); in the assay with SNB-75 it was > 10 µM (inactive); in the assay with T47D it was > 10 µM (inactive); in the assay with NCI-H522, > 10 µM (inactive). For the same molecule, the GI50 in the assay on Hs-578T is > 10 µM (inactive).

As for `COc1ccc(-c2c(C3=NCCCN3)nnn2-c2ccccc2)cc1`, the GI50 in the assay on SNB-19 was > 100 µM (inactive); with HOP-92, 86.5 µM (inactive); with HCC 2998, > 100 µM (inactive); with A498, > 100 µM (inactive); in the assay with CCRF-CEM it was > 100 µM (inactive); in the assay with LOX IMVI, > 100 µM (inactive). Further, the GI50 in the assay with UACC-62, in the assay with HT-29, in the assay on UACC-257, in the assay on HL-60, in the assay on CAKI-1 and in the assay on HCT-116 was > 100 µM (inactive) in each case. The GI50 in the assay with OVCAR-8 is > 100 µM (inactive); with K562, > 100 µM (inactive); in the assay on SNB-75, 47.4 µM (inactive); in the assay with NCI-H522, > 100 µM (inactive).
